The test system of the test is T1, C11-GH1.
T1 construct: gene C11_GH1; Full ORF in pET28 (NdeI/XhoI), E. coli BL21(DE3), Ni-NTA; text says C-terminal His tag but reverse primer carries a stop codon; Primer-derived: N-term (M)VAFSDKFL (native GTG start), C-term SRNGKNL, nucleophile region LPLIITENGMADND
The test is described as follows: fluorogenic hydrolysis, MU release. Format: biochemical. The following applies: 20 mM HEPES, 300 mM NaCl, pH 7.0, 37°C; read-out: Mean Km (mM) ± SD. The source says: fluorogenic hydrolysis, MU release on C11-GH1

For the compound `Cc1cc(=O)oc2cc(O[C@@H]3O[C@H](CO)[C@H](O)[C@H](O)[C@H]3O)ccc12` [Gal MU], the Km is 0.05 ± 0.02 mM.

As for `Cc1cc(=O)oc2cc(O[C@@H]3O[C@H](CN=[N+]=[N-])[C@@H](O)[C@H](O)[C@H]3O)ccc12` [6-N3-Glc MU], the Km stood at 0.05 ± 0.01 mM.

`Cc1cc(=O)oc2cc(O[C@@H]3O[C@H](CO)[C@@H](O)[C@H](O)[C@H]3O)ccc12` [Glc MU]: the Km turned out to be 0.2 ± 0.03 mM.

Consider `Cc1cc(=O)oc2cc(O[C@@H]3O[C@H](CN=[N+]=[N-])[C@H](O)[C@H](O)[C@H]3O)ccc12` [6-N3-Gal MU, 4-methylumbelliferyl 6-azido-6-deoxy-β-D-galactoside], for which the Km was 0.1 ± 0.02 mM.

Source of the values: paper PMC6550366, “High-Throughput Recovery and Characterization of Metagenome-Derived Glycoside Hydrolase-Containing Clones as a Resource for Biocatalyst Development” (mSystems, 2019).
